Data: publication PMC11137734, “Exploring Novel Antimalarial Compounds Targeting Plasmodium falciparum Enoyl-ACP Reductase: Computational and Experimental Insights” (ACS Omega, 2024)

Tests used:
[1] = target: T1, P. falciparum 2-trans-enoyl-ACP reductase (PfENR) (Plasmodium falciparum, UniProt C6KSZ2); experiment: NADH consumption enzymatic assay ([…] nm) with crotonyl-CoA, purified recombinant PfENR; assay type: biochemical
T1 construct: gene PF3D7_0615100; recombinant His-tagged PfENR (pGS-21a, E. coli BL21(DE3))
T1 sequence (C6KSZ2 96-432): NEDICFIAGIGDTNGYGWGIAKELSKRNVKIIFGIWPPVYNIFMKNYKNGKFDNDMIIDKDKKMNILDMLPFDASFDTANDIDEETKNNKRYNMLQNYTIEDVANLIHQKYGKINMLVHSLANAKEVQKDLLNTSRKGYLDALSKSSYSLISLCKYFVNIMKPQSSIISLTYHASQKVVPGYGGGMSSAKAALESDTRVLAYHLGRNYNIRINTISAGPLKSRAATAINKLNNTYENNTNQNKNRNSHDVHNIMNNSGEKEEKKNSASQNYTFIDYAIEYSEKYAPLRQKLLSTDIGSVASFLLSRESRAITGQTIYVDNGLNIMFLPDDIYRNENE

[2] = target: T1, P. falciparum 2-trans-enoyl-ACP reductase (PfENR); experiment: NADH consumption enzymatic assay ([…] nm) with crotonyl-CoA, purified recombinant PfENR; positive control inhibitor; assay type: biochemical

| SMILES | IC50 [1] [µM] | IC50 [2] [µM] |
| --- | --- | --- |
| CCc1ccc(Oc2ccc(NS(=O)(=O)c3ccc4ccccc4c3)cc2)cc1 [LG2, N-[4-(4-ethylphenoxy)phenyl]naphthalene-2-sulfonamide] | 3.95 |  |
| Oc1cc(Cl)ccc1Oc1ccc(Cl)cc1Cl [TCL, Triclosan] |  | 3.58 |
